Target: T1, P2X7 (UniProt Q99572)
T1 sequence (Q99572 1-595): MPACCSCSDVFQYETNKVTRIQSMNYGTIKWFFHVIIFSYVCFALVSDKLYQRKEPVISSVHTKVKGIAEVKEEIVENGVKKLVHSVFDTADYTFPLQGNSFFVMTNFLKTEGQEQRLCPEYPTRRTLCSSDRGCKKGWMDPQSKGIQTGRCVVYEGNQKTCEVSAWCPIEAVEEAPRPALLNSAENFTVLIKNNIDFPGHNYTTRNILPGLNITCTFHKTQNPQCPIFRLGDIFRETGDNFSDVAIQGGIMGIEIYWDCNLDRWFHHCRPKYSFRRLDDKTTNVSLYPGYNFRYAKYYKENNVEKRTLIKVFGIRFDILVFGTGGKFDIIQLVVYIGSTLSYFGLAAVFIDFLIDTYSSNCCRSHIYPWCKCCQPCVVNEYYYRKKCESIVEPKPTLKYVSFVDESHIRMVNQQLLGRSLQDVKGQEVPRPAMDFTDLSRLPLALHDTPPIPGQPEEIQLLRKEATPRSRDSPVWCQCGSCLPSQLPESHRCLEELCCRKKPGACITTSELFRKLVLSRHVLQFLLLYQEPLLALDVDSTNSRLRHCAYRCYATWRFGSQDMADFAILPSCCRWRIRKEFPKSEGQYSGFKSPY
Assay: P2X7 activity of Table 1
Assay type: cell-based
Conditions: pIC50 values for P2X7
Description: Stock solutions of compounds were prepared from powders as a 10 mM DMSO stock solution. These solutions were stored at RT during the two week period of these experiments to prevent freeze-thaw of the DMSO stocks. The DMSO stocks were added to the appropriate assay buffer at a concentration of 10 μM, and then diluted serially to the final concentrations that were tested. […] The aqueous solutions of compounds as well as ATP (Sigma A7699) and BzATP (Sigma B6396) were prepared fresh for each day of experiment.
1321N1 cells stably expressing the full length human P2X7 gene (1321N1-hP2X7) and HEK293 cells stably expressing the full length rat P2X7 gene (HEK293-rP2X7) were obtained from the Roche Cell Culture Facility. 1321N1-hP2X7 cells were grown in Dulbecco's Modified Eagle's Medium (DMEM) high glucose supplemented with 10% FBS and 250 μg/mL G418. HEK293-rP2X7 cells were grown in DMEM/F-12 supplemented with 10% FBS, 1 mM CaCl2, 2 mM MgCl2, 2 mM L-Glutamine and 500 μg/ml G418. Cells were split such that they never became >70% confluent.
On the day prior to the experiment, 1321N1-hP2X7 or HEK293-rP2X7 cells were released into suspension with calcium-free PBS+Versene and washed by centrifugation with calcium-free PBS to remove the Versene. Cells were resuspended in growth medium at a density of 2.5×10^5 cells/mL and seeded into black walled, clear bottom 96 well plates (50,000 cells/well) approximately 18 hr prior to intracellular calcium flux experiments.
On the day of the experiment, plates were washed with FLIPR buffer (calcium- and magnesium-free Hank's Balanced Salt Solution (HBSS) supplemented with 10 mM Hepes, 2.5 mM probenecid and 2 mM calcium chloride) using a BIO-TEK 96 channel plate washer and incubated with […] fluo-3 dye at 37° C. for one hr. The dye was then removed by plate washing and the cells were allowed to equilibrate for 20 min at room temperature with antagonist or vehicle (FLIPR buffer). Agonist (100 μM BzATP final concentration for hP2X7; 5 μM BzATP final concentration or rP2X7) was added online with the FLIPR and fluorescence measurements made at 1 sec intervals for 60 sec followed by 3 sec intervals for a further 4 min (5 min total). A final addition of 5 μM ionomycin was made and the maximal BzATP-evoked fluorescence normalized to the maximal ionomycin-evoked fluorescence.

**Q.** Which pIC50 does the source give for `COCCn1c(C)nnc1-c1ccc(C)c(NC(=O)C2=CNC(=O)C[C@H]2c2ccc(F)cc2)c1` [Compound 48, (S)-4-(4-Fluoro-phenyl)-6-oxo-1,4,5,6-tetrahydro-pyridine-3-carboxylic acid {5-[4-(2-methoxy-ethyl)-5-methyl-4H-[1,2,4]triazol-3-yl]-2-methyl-phenyl}-amide] here?
**A.** The pIC50 was 5.86.

**Q.** With `Cc1cn(-c2ccc(C)c(NC(=O)C3=CNC(=O)C[C@H]3c3ccc(F)cc3)c2)cn1` [Compound 49, (S)-4-(4-Fluoro-phenyl)-6-oxo-1,4,5,6-tetrahydro-pyridine-3-carboxylic acid [2-methyl-5-(4-methyl-imidazol-1-yl)-phenyl]-amide] as the compound, how does the pIC50 read?
**A.** The pIC50 was 6.855.

**Q.** With `CCOC(=O)Cn1nc(-c2ccc(C)c(NC(=O)C3=CNC(=O)C[C@H]3c3ccc(F)cc3)c2)cc1C` [Compound 50, [3-(3-{[(S)-4-(4-Fluoro-phenyl)-6-oxo-1,4,5,6-tetrahydro-pyridine-3-carbonyl]-amino}-4-methyl-phenyl)-5-methyl-pyrazol-1-yl]-acetic acid ethyl ester] as the compound, how does the pIC50 read?
**A.** Its pIC50 is 7.145.

**Q.** For `Cc1ccc(-c2ncccn2)cc1NC(=O)C1=CNC(=O)C[C@H]1c1ccc(F)cc1` [Compound 51, (S)-4-(4-Fluoro-phenyl)-6-oxo-1,4,5,6-tetrahydro-pyridine-3-carboxylic acid (2-methyl-5-pyrimidin-2-yl-phenyl)-amide], which pIC50 is on record?
**A.** The pIC50 was 7.87.

**Q.** `Cc1ccc(-c2cncnc2)cc1NC(=O)C1=CNC(=O)C[C@H]1c1ccc(F)cc1` [Compound 52, (S)-4-(4-Fluoro-phenyl)-6-oxo-1,4,5,6-tetrahydro-pyridine-3-carboxylic acid (2-methyl-5-pyrimidin-5-yl-phenyl)-amide] was tested. Which pIC50 did it give?
**A.** Its pIC50 is 6.425.

**Q.** How did the pIC50 turn out when `Cc1nccc(-c2ccc(C)c(NC(=O)C3=CNC(=O)C[C@H]3c3ccc(F)cc3)c2)n1` [Compound 53, (S)-4-(4-Fluoro-phenyl)-6-oxo-1,4,5,6-tetrahydro-pyridine-3-carboxylic acid [2-methyl-5-(2-methyl-pyrimidin-4-yl)-phenyl]-amide] was run?
**A.** The pIC50 was 7.325.

**Q.** Which pIC50 does the source give for `Cc1cc(-c2ccc(C)c(NC(=O)C3=CNC(=O)C[C@H]3c3ccc(F)cc3)c2)ccn1` [Compound 54, (S)-4-(4-Fluoro-phenyl)-6-oxo-1,4,5,6-tetrahydro-pyridine-3-carboxylic acid [2-methyl-5-(2-methyl-pyridin-4-yl)-phenyl]-amide] here?
**A.** Its pIC50 is 7.045.

**Q.** With `Cc1ccc(-c2c(Cl)cn[nH]c2=O)cc1NC(=O)C1=CNC(=O)C[C@H]1c1ccc(F)cc1` [Compound 55, (S)-4-(4-Fluoro-phenyl)-6-oxo-1,4,5,6-tetrahydro-pyridine-3-carboxylic acid [5-(5-chloro-3-oxo-2,3-dihydro-pyridazin-4-yl)-2-methyl-phenyl]-amide] as the compound, how does the pIC50 read?
**A.** The pIC50 was 7.54.

**Q.** With `Cc1ccc(-c2ccn[nH]c2=O)cc1NC(=O)C1=CNC(=O)C[C@H]1c1ccc(F)cc1` [Compound 56, (S)-4-(4-Fluoro-phenyl)-6-oxo-1,4,5,6-tetrahydro-pyridine-3-carboxylic acid [2-methyl-5-(3-oxo-2,3-dihydro-pyridazin-4-yl)-phenyl]-amide] as the compound, how does the pIC50 read?
**A.** Its pIC50 is 8.256.

**Q.** With `Cc1ccc(-c2cscn2)cc1NC(=O)C1=CNC(=O)C[C@H]1c1ccc(F)cc1` [Compound 57, (S)-4-(4-Fluoro-phenyl)-6-oxo-1,4,5,6-tetrahydro-pyridine-3-carboxylic acid (2-methyl-5-thiazol-4-yl-phenyl)-amide] as the compound, how does the pIC50 read?
**A.** Its pIC50 is 8.06.

**Q.** `Cc1nc(-c2ccc(C)c(NC(=O)C3=CNC(=O)C[C@H]3c3ccc(F)cc3)c2)cs1` [Compound 58, (S)-4-(4-Fluoro-phenyl)-6-oxo-1,4,5,6-tetrahydro-pyridine-3-carboxylic acid [2-methyl-5-(2-methyl-thiazol-4-yl)-phenyl]-amide] was tested. Which pIC50 did it give?
**A.** Its pIC50 is 7.87.

**Q.** Which pIC50 does the source give for `Cc1ccc(-c2ccncc2)cc1NC(=O)C1=CNC(=O)C[C@H]1c1ccc(F)cc1` [Compound 59, (S)-4-(4-Fluoro-phenyl)-6-oxo-1,4,5,6-tetrahydro-pyridine-3-carboxylic acid (2-methyl-5-pyridin-4-yl-phenyl)-amide] here?
**A.** Its pIC50 is 7.22.

**Q.** With `CCn1c(C)nnc1-c1ccc(C)c(NC(=O)C2=CNC(=O)C[C@H]2c2ccc(F)cc2)c1` [Compound 60, (S)-4-(4-Fluoro-phenyl)-6-oxo-1,4,5,6-tetrahydro-pyridine-3-carboxylic acid [5-(4-ethyl-5-methyl-4H-[1,2,4]triazol-3-yl)-2-methyl-phenyl]-amide] as the compound, how does the pIC50 read?
**A.** The pIC50 was 6.535.

**Q.** Which pIC50 does the source give for `Cc1ccc(-c2cc(C)n(C[C@H](O)CO)n2)cc1NC(=O)C1=CN(C)C(=O)C[C@H]1c1ccc(F)cc1` [Compound 61, (S)-4-(4-Fluoro-phenyl)-1-methyl-6-oxo-1,4,5,6-tetrahydro-pyridine-3-carboxylic acid {5-[1-((S)-2,3-dihydroxy-propyl)-5-methyl-1H-pyrazol-3-yl]-2-methyl-phenyl}-amide] here?
**A.** Its pIC50 is 7.255.

**Q.** Which pIC50 does the source give for `Cc1ccc(-c2cc(C3CC3)[nH]n2)cc1NC(=O)C1=CNC(=O)C[C@H]1c1ccc(F)cc1` [Compound 62, (S)-4-(4-Fluoro-phenyl)-6-oxo-1,4,5,6-tetrahydro-pyridine-3-carboxylic acid [5-(5-cyclopropyl-1H-pyrazol-3-yl)-2-methyl-phenyl]-amide] here?
**A.** Its pIC50 is 6.935.

**Q.** `Cc1ccc(-c2ccn(C)n2)cc1NC(=O)C1=CNC(=O)C[C@H]1c1cccc(F)c1` [Compound 63, (S)-4-(3-Fluoro-phenyl)-6-oxo-1,4,5,6-tetrahydro-pyridine-3-carboxylic acid [2-methyl-5-(1-methyl-1H-pyrazol-3-yl)-phenyl]-amide] was tested. Which pIC50 did it give?
**A.** Its pIC50 is 7.965.

**Q.** For `Cc1ccc(-c2cc(C)n(C[C@@H](O)CO)n2)cc1NC(=O)C1=CN(C)C(=O)C[C@H]1c1ccc(F)cc1` [Compound 64, (S)-4-(4-Fluoro-phenyl)-1-methyl-6-oxo-1,4,5,6-tetrahydro-pyridine-3-carboxylic acid {5-[1-((R)-2,3-dihydroxy-propyl)-5-methyl-1H-pyrazol-3-yl]-2-methyl-phenyl}-amide], which pIC50 is on record?
**A.** The pIC50 was 7.585.

**Q.** `Cc1ccc(-c2ccn(C)n2)cc1NC(=O)C1=CNC(=O)C[C@H]1c1ccc(F)cc1` [Compound 65, (S)-4-(4-Fluoro-phenyl)-6-oxo-1,4,5,6-tetrahydro-pyridine-3-carboxylic acid [2-methyl-5-(1-methyl-1H-pyrazol-3-yl)-phenyl]-amide] was tested. Which pIC50 did it give?
**A.** Its pIC50 is 7.705.

**Q.** For `Cc1ccc(-n2cnnc2)cc1NC(=O)C1=CNC(=O)C[C@H]1c1ccc(F)cc1` [Compound 66, (S)-4-(4-Fluoro-phenyl)-6-oxo-1,4,5,6-tetrahydro-pyridine-3-carboxylic acid (2-methyl-5-[1,2,4]triazol-4-yl-phenyl)-amide], which pIC50 is on record?
**A.** The pIC50 was 5.55.

**Q.** Which pIC50 does the source give for `CCn1c(=O)cnn(-c2ccc(C)c(NC(=O)C3=CNC(=O)C[C@H]3c3ccc(F)cc3)c2)c1=O` [Compound 67, (S)-4-(4-Fluoro-phenyl)-6-oxo-1,4,5,6-tetrahydro-pyridine-3-carboxylic acid [5-(4-ethyl-3,5-dioxo-4,5-dihydro-3H-[1,2,4]triazin-2-yl)-2-methyl-phenyl]-amide] here?
**A.** The pIC50 was 7.575.

**Q.** `Cc1ccc(-n2ncc(=O)n(C)c2=O)cc1NC(=O)C1=CN(C)C(=O)C[C@H]1c1ccc(F)cc1` [Compound 68, (S)-4-(4-Fluoro-phenyl)-1-methyl-6-oxo-1,4,5,6-tetrahydro-pyridine-3-carboxylic acid [2-methyl-5-(4-methyl-3,5-dioxo-4,5-dihydro-3H-[1,2,4]triazin-2-yl)-phenyl]-amide] was tested. Which pIC50 did it give?
**A.** The pIC50 was 7.01.

**Q.** How did the pIC50 turn out when `Cc1ccc(-c2cc(C)n(CCO)n2)cc1NC(=O)C1=CNC(=O)C[C@H]1c1cccc(F)c1` [Compound 69, (S)-4-(3-Fluoro-phenyl)-6-oxo-1,4,5,6-tetrahydro-pyridine-3-carboxylic acid {5-[1-(2-hydroxy-ethyl)-5-methyl-1H-pyrazol-3-yl]-2-methyl-phenyl}-amide] was run?
**A.** The pIC50 was 7.92.

Reference: patent publication US8163929B2, “Dihydropyridone amides as P2X7 modulators” (Roche Palo Alto LLC, priority 2008, dated 2012)
